Laboratory results taken from paper PMC10252594 (Cancers, 2023).

How the values were obtained:
[1] = Tolerated dose of RM-581 in mice (dose escalation); format: in vivo
Procedure: It is important to note that animal death is not an accepted endpoint for CCAC. RM-581 was first dissolved in DMSO, and PG was added to obtain a final 8% concentration of co-solvent DMSO. The injected volume was 0.1 mL, but the number of injections ranged from 1, 2, or 3 to obtain the expected dose. Each week for […] consecutive weeks, an increased dose (60, 120, 240, 360, 480, 600, or 720 mg/kg) of RM-581 was administered by gavage (PO), and the mice were weighed and observed for 7 days to notice any signs of toxicity. The protocol was applied to four groups (Gr) divided as follows: Gr-1: 5 female mice received the vehicle only; Gr-2: 5 male mice received the vehicle only; Gr-3: 5 female mice treated with RM-581; and Gr-4: 5 male mice treated with RM-581.

LAPC-4 xenografts = test: Fatty acid determination (GC-FID) in LAPC-4 xenograft experiment; format: in vivo, mice; details: 10 mg/kg PO
Procedure: […] The fatty acid profile was next determined by gas chromatography (GC), coupled with a flame ionization detector (FID), using phosphatidylcholine C21:0 (Avanti Polar Lipids) as an internal standard. The GC model 5890 was from Agilent Technologies (Mississauga, ON, Canada). The capillary column used was a HP-88 (100 m × 0.25 mm, […], Agilent Technologies), and the carrier gas was helium at 1.5 mL/min. A total of 56 fatty acids were identified according to their retention time, using fatty acid mixtures as standards.

[2] = LAPC-4 tumor, 28 days (RM-581 group per Table S1)
[3] = LAPC-4 tumor, 28 days, Table S1

For `C#C[C@]1(O)CC[C@H]2[C@@H]3CCc4cc(OC)c(N5CCN(C(=O)[C@@H]6CCCN6C(=O)c6ccc7ccccc7n6)CC5)cc4[C@H]3CC[C@@]21C` [RM-581], the therapeutic index ([1]; assuming effective dose of 30 mg/kg) was > 24, the “signs of toxicity, dose escalation” value ([1]; normal male and female mice, 60, 120, 240, 360, 480, 600 and 720 mg/kg PO weekly) was “no signs of toxicity” and the “body weight, treated vs control groups” value ([1]; normal mice, dose escalation up to 720 mg/kg PO, 7 weeks) was “no significant body weight difference”. The “S-FA, liver” value (LAPC-4 xenografts; 28 days) was 12.5 mg/g, the “S-FA, plasma” value (LAPC-4 xenografts; 28 days) was 1.10 µg/mL and the “S-FA, plasma, % vs CTL” value (LAPC-4 xenografts; 28 days) was “+2.8%”. For the same compound, the “S-FA, tumor” value (LAPC-4 xenografts; 28 days) was 8.15 mg/g, the “T-FA, liver” value (LAPC-4 xenografts; 28 days) was 34.5 mg/g and the “T-FA, liver, % vs CTL” value (LAPC-4 xenografts; 28 days) was “+19.8%”. The “T-FA, plasma” value (LAPC-4 xenografts; 28 days) was 3.71 µg/mL, the “T-FA, plasma, % vs CTL” value (LAPC-4 xenografts; 28 days) was “+1.6%” and the “T-FA, tumor” value (LAPC-4 xenografts; 28 days) was 24.5 mg/g. For the same compound, the “U-FA, liver” value (LAPC-4 xenografts; 28 days) was 21.9 mg/g, the “U-FA, plasma” value (LAPC-4 xenografts; 28 days) was 2.59 µg/mL and the “U-FA, plasma, % vs CTL” value (LAPC-4 xenografts; 28 days) was “+1.6%”. For the same compound, the “U-FA, tumor” value (LAPC-4 xenografts; 28 days) was 16.0 mg/g, the “Adrenic acid-1 (7c10c13c16c) 22:4, % vs CTL” value (LAPC-4 xenografts; LAPC-4 tumor, 28 days) was “+8.6%” and the “Adrenic acid-1 (7c10c13c16c) 22:4, FA RM-581” value (LAPC-4 xenografts; LAPC-4 tumor, 28 days) was 0.380 mg/g. For the same compound, the “Adrenic acid-2 (4c7c10c13c16c) 22:5, % vs CTL” value (LAPC-4 xenografts; LAPC-4 tumor, 28 days) was −12%, the “Adrenic acid-2 (4c7c10c13c16c) 22:5, FA RM-581” value (LAPC-4 xenografts; LAPC-4 tumor, 28 days) was 0.260 mg/g and the “Alpha-linolenic acid (9c12c15c) 18:3, FA RM-581” value (LAPC-4 xenografts; LAPC-4 tumor, 28 days) was 0.230 mg/g. For the same compound, the “Arachidonic (5c8c11c14c) 20:4, % vs CTL” value (LAPC-4 xenografts; LAPC-4 tumor, 28 days) was −2.1%, the “Arachidonic (5c8c11c14c) 20:4, FA RM-581” value (LAPC-4 xenografts; LAPC-4 tumor, 28 days) was 2.150 mg/g and the “Cervonic acid 22:6, % vs CTL” value (LAPC-4 xenografts; LAPC-4 tumor, 28 days) was 0%. For the same compound, the “Cervonic acid 22:6, FA RM-581” value (LAPC-4 xenografts; LAPC-4 tumor, 28 days) was 0.530 mg/g, the “Dihomo-γ-linolenic acid (8c11c14c) 20:3, FA RM-581” value (LAPC-4 xenografts; LAPC-4 tumor, 28 days) was 0.580 mg/g and the “Dimethoxyhexadecanoic acid 16:0, % vs CTL” value (LAPC-4 xenografts; LAPC-4 tumor, 28 days) was 0%. The “Dimethoxyhexadecanoic acid 16:0, FA RM-581” value (LAPC-4 xenografts; LAPC-4 tumor, 28 days) was 0.170 mg/g, the “Docosapentaenoic acid (7c10c13c16c19c) 22:5, % vs CTL” value (LAPC-4 xenografts; LAPC-4 tumor, 28 days) was “+17%” and the “Docosapentaenoic acid (7c10c13c16c19c) 22:5, FA RM-581” value (LAPC-4 xenografts; LAPC-4 tumor, 28 days) was 0.140 mg/g. The “Lignoceric acid 24:0, % vs CTL” value (LAPC-4 xenografts; LAPC-4 tumor, 28 days) was “+23%”, the “Lignoceric acid 24:0, FA RM-581” value (LAPC-4 xenografts; LAPC-4 tumor, 28 days) was 0.160 mg/g and the “Linoleic acid (9c12c) 18:2, FA RM-581” value (LAPC-4 xenografts; LAPC-4 tumor, 28 days) was 4.435 mg/g. For the same compound, the “Myristic acid 14:0, FA RM-581” value (LAPC-4 xenografts; LAPC-4 tumor, 28 days) was 0.275 mg/g, the “Nervonic acid (15c) 24:1, % vs CTL” value (LAPC-4 xenografts; LAPC-4 tumor, 28 days) was “+18%” and the “Nervonic acid (15c) 24:1, FA RM-581” value (LAPC-4 xenografts; LAPC-4 tumor, 28 days) was 0.130 mg/g. For the same compound, the “Oleic acid (9c) 18:1, FA RM-581” value (LAPC-4 xenografts; LAPC-4 tumor, 28 days) was 4.920 mg/g, the “Palmitic acid 16:0, FA RM-581” value (LAPC-4 xenografts; LAPC-4 tumor, 28 days) was 5.095 mg/g and the “Palmitoleic acid (9c) 16:1, FA RM-581” value (LAPC-4 xenografts; LAPC-4 tumor, 28 days) was 1.035 mg/g. For the same compound, the “Stearic acid 18:0, % vs CTL” value (LAPC-4 xenografts; LAPC-4 tumor, 28 days) was “+3.5%”, the “Stearic acid 18:0, FA RM-581” value (LAPC-4 xenografts; LAPC-4 tumor, 28 days) was 2.355 mg/g and the “Vaccenic acid (11c) 18:1, % vs CTL” value (LAPC-4 xenografts; LAPC-4 tumor, 28 days) was “+5.3%”. The “Vaccenic acid (11c) 18:1, FA RM-581” value (LAPC-4 xenografts; LAPC-4 tumor, 28 days) was 0.690 mg/g, the “Adrenic acid-1 (7c10c13c16c) 22:4, % of Total FA” value (LAPC-4 xenografts; [2]) was 1.54% and the “Adrenic acid-2 (4c7c10c13c16c) 22:5, % of Total FA” value (LAPC-4 xenografts; [2]) was 1.07%. The “Alpha-linolenic acid (9c12c15c) 18:3, % of Total FA” value (LAPC-4 xenografts; [2]) was 0.94%, the “Arachidonic (5c8c11c14c) 20:4, % of Total FA” value (LAPC-4 xenografts; [2]) was 8.77% and the “Cervonic acid 22:6, % of Total FA” value (LAPC-4 xenografts; [2]) was 2.18%. The “Dihomo-γ-linolenic acid (8c11c14c) 20:3, % of Total FA” value (LAPC-4 xenografts; [2]) was 2.35%, the “Dimethoxyhexadecanoic acid 16:0, % of Total FA” value (LAPC-4 xenografts; [2]) was 0.68% and the “Docosapentaenoic acid (7c10c13c16c19c) 22:5, % of Total FA” value (LAPC-4 xenografts; [2]) was 0.57%. The “Lignoceric acid 24:0, % of Total FA” value (LAPC-4 xenografts; [2]) was 0.65%, the “Linoleic acid (9c12c) 18:2, % of Total FA” value (LAPC-4 xenografts; [2]) was 18.1% and the “Myristic acid 14:0, % of Total FA” value (LAPC-4 xenografts; [2]) was 1.12%. For the same compound, the “Nervonic acid (15c) 24:1, % of Total FA” value (LAPC-4 xenografts; [2]) was 0.52%, the “Oleic acid (9c) 18:1, % of Total FA” value (LAPC-4 xenografts; [2]) was 20.1% and the “Palmitic acid 16:0, % of Total FA” value (LAPC-4 xenografts; [2]) was 20.8%. For the same compound, the “Palmitoleic acid (9c) 16:1, % of Total FA” value (LAPC-4 xenografts; [2]) was 4.23%, the “Stearic acid 18:0, % of Total FA” value (LAPC-4 xenografts; [2]) was 9.61% and the “Vaccenic acid (11c) 18:1, % of Total FA” value (LAPC-4 xenografts; [2]) was 2.82%. For the same compound, the “Arachidic acid 20:0, FA RM-581” value (LAPC-4 xenografts; [3]) was 0.05 mg/g, the “Arachidic acid 20:0, FA RM-581 % of total” value (LAPC-4 xenografts; [3]) was 0.20% and the “Behenic acid 22:0, FA RM-581” value (LAPC-4 xenografts; [3]) was 0.09 mg/g. For the same compound, the “Behenic acid 22:0, FA RM-581 % of total” value (LAPC-4 xenografts; [3]) was 0.35%, the “Caproic acid 10:0, FA RM-581” value (LAPC-4 xenografts; [3]) was 0 mg/g and the “Caproic acid 10:0, FA RM-581 % of total” value (LAPC-4 xenografts; [3]) was 0.02%. The “Caprylic acid 8:0, FA RM-581” value (LAPC-4 xenografts; [3]) was 0 mg/g, the “Caprylic acid 8:0, FA RM-581 % of total” value (LAPC-4 xenografts; [3]) was 0% and the “Dimethoxyoctadecanoic acid 18:0, FA RM-581” value (LAPC-4 xenografts; [3]) was 0.09 mg/g. The “Dimethoxyoctadecanoic acid 18:0, FA RM-581 % of total” value (LAPC-4 xenografts; [3]) was 0.38%.
